Reference: patent publication EP0828750B1, “PALLADIUM CATALYZED NUCLEOSIDE MODIFICATION METHODS USING NUCLEOPHILES AND CARBON MONOXIDE” (EC Technology LLC, priority 1995, dated 1996)

What was measured:
[1] = system: human cytomegalovirus (CMV); test: Plaque reduction assay using semi-solid overlay (EC50 determination); format: cell-based; conditions: for EC50: Human betaherpesvirus 5, 336 h, concentration required to inhibit viral cytopathogenicity by 50%, CMV plaques in HFF, agarose overlay, 14 days, drug range 100 to 0.03 µg/ml; for SI: Selectivity Index, SI = IC50/EC50
Protocol: (§1) Newborn human foreskins were obtained immediately post-circumcision and placed in minimal essential medium (MEM) supplemented with vancomycin, fungizone, penicillin and gentamycin (all present at standard concentrations) and maintained for four hours under tissue culture conditions (37°C, 5% CO2). Supplemented MEM was then removed and the foreskin material macerated. Tissue fragments were then washed exhaustively (using supplemented MEM) to remove residual erythrocyte contamination.
The erythrocyte-free cell fragments were then exposed to trypsin solution (0.25%) for 15 min with continuous stirring. Tissue fragments were then allowed to settle out of suspension and the supernatant collected and passed through sterile cheesecloth into a flask containing MEM and 10% fetal bovine serum (FBS). The cheesecloth was washed with an additional volume of MEM containing 10% FBS (The flask containing MEM and 10% FBS was maintained on ice throughout the trypsinization procedure). The trypsinization procedure was repeated using fresh trypsin solution, until no additional cell removal from tissue fragments was observed. Cells removed by this process are predominantly human foreskin fibroblasts (HFF).
Cells contained in MEM with 10% FBS were pelleted by centrifugation (≅ 1000 RPM, 4°C, 10 min), the supernatant discarded and the pelleted cells suspended in a minimal volume of MEM with 10% FBS. HFF isolates were then plated into T-25 tissue culture flasks (the number of primary culture flasks used was based on the volume of the recovered cell pellet). HFF isolates were then maintained under tissue culture conditions (37°C, 5% CO2) until confluent. Primary cultures of HFF were sequentially expanded into larger format culture flasks using standard tissue culture procedures. HFF were maintained in the presence of vancomycin and fungizone through passage four.
HFF are plated into 6-well tissue culture plates and maintained under tissue culture conditions for approximately two days prior to use. On the date of assay, experimental drug solutions are prepared as 2X concentrations in 2X MEM. Serial dilutions of experimental drug are then performed (1:5) using 2X MEM. The approximate concentration range for experimental agents being 200 to 0.06 µg/ml. Each drug or control solution was then diluted 1:1 with 0.8% agarose solution. Following dilution with agarose solution, the final experimental drug concentration range was 100 to 0.03 µg/ml, with a final agarose overlay concentration of 0.4%. Viral material (CMV) was diluted in MEM with 10% FBS to yield a concentration of virus producing 20-30 plaques per well. […]
Following incubations, HFF were stained for 4-6H with a 1.5% solution of neutral red. The neutral red/agarose/MEM mixture is aspirated and viral plaques counted using a 10X steriomicroscope. […]

[2] = system: human foreskin fibroblasts (HFF); test: Cytotoxicity assay (IC50 determination), crystal violet staining; format: cell-based; conditions: Fibroblast, 336 h, concentration required to inhibit cellular proliferation by 50%, 96-well, 14 day incubation, crystal violet absorbance 620nm
Protocol: as §1
The erythrocyte-free cell fragments were then exposed to trypsin solution (0.25%) for 15 min with continuous stirring. […]
HFF were seeded into 96-well tissue culture plates at a concentration of 2.5x10^4 cells/ml (100µl MEM with 10% FBS was used as the culture medium) and maintained under tissue culture conditions for 24H prior to experimentation. […] To the first row of each 96-well plate, 125 µl of control media or experimental drug CT1146-26 or CT1146-28 (initial concentration determined by the overall concentration range desired) was added in triplicate wells. […]
Following the incubation period, medium was removed from all wells and the cells stained with 0.1% crystal violet solution for 30 min followed by several wash cycles to remove residual stain. The crystal violet stained plates were then allowed to air dry for 24H prior to reading well absorbance values (620nm) using a Skatron plate reader. […]

EC50 [1]	SMILES	SI [1]	IC50 [2]
< 0.03 µg/mL	CC(C)NC(=O)c1cn(C2OC(COP(=O)(O)O)C(O)C2O)c(=O)nc1N (stereo not drawn) [CT1146-26]	> 3333	> 100 µg/mL
< 0.03 µg/mL	CCCCNC(=O)c1cn(C2OC(COP(=O)(O)O)C(O)C2O)c(=O)nc1N (stereo not drawn) [CT1146-28]	> 3333	> 100 µg/mL
